Ends that are not written are not given here.
Columns and labels:
[1] = tested on: CHA15 cells transcriptome / NMD targets; experiment: RNA-seq of CPP-peptide-treated CHA15 cells (NMD targets, SDGs; Fig. 6a, b, d; Supplementary Fig. 6a; Supplementary Data 2); type: cell-based, Homo sapiens; details: for gene expression, CPP-P8 / P1: vs P1, RNA-seq; for number of NMD targets significantly changed by CPP-P8: hESCs (CHA15)
Description: For CPP-conjugated peptide delivery, HeLa, 293T, and PA-1 cells were incubated with CPP-conjugated peptides or CPP-FITC at 2 μM in DMEM with 10% FBS for 12 h a day before cell harvest. hPSCs were treated with CPP-conjugated peptides at 10 μM in mTeSR Plus Medium, […] The ROCK inhibitor (Tocris Bioscience, Y-27632) treated-hPSCs were dissociated into single cells using Accutase (Merck, SCR005) and differentiated into ectoderm, mesoderm, and endoderm using the STEMdiff Trilineage Differentiation Kit ([…] Technologies, 05230) following the manufacturer’s protocol. Differentiated cells treated with CPP-conjugated peptides were analysed at 0, 3, and 5 days for ectoderm and endoderm, and at 0, 3, and 4 days for mesoderm.
Total RNA concentration was calculated using Quant-IT RiboGreen (Invitrogen, R11490). To assess the integrity of the total RNA, samples were run on a TapeStation RNA screentape (Agilent). Only high-quality RNA preparations with RNA integrity number greater than 7.0 were used for the RNA library construction. A library was independently prepared with 1 μg of total RNA from each sample using the Illumina TruSeq Stranded mRNA Sample Prep Kit (Illumina, 20020594). The first step in the workflow involves purifying poly‐A-containing mRNA molecules using poly‐T‐attached magnetic beads. Following purification, mRNA was fragmented into small pieces using divalent cations at elevated temperatures. The cleaved RNA fragments were copied into first-strand cDNA using SuperScript II reverse transcriptase (Invitrogen, 18064022) and random primers. This was followed by second-strand cDNA synthesis using DNA polymerase I, RNase H, and dUTP. These cDNA fragments underwent an end repair process, adding a single ‘A’ base and ligating the adapters. The products were purified and enriched via PCR to create the final cDNA library. The libraries were quantified using the KAPA Library Quantification Kits for Illumina Sequencing platforms according to the qPCR Quantification Protocol Guide (KAPA BIOSYSTEMS, KR0405) and qualified using the TapeStation D1000 ScreenTape (Agilent). Indexed libraries were then submitted to an Illumina NovaSeq (Illumina), and Macrogen Inc. performed paired-end (2 × 100 bp) sequencing.
We pre-processed the raw reads from the sequencer to remove low-quality reads and adapter sequences before analysis and aligned the processed reads to Homo sapiens (GRCh37) using HISAT v2.1.0[52]. HISAT utilises two indices for alignment (a global whole-genome index and tens of thousands of small local indexes). These two types of indices are constructed using the same Burrows-Wheeler transform (BWT)/graph FM index (GFM) as Bowtie2. The reference genome sequence of Homo sapiens (GRCh37) and the annotation data were downloaded from the NCBI database. Transcript assembly was processed using StringTie v1.3.4d[53],[54]. […] Differentially expressed genes (DEGs) were analysed by ratio of FPKM or using DESeq2 with read counts. Log2 fold-change value of the NMD targets[25],[32], three germ layer markers, miRNA targets, or SDGs was converted into cumulative frequency curve using the R function, ‘ecdf’ (version 4.0.5). Gene functional classification and Gene ontology (GO) were performed using g:Profiler[56].

p-UPF1 (Thr28) = experiment: Western blot of p-UPF1 (Thr28) in CPP-peptide-treated hPSCs; type: cell-based, human; details: relative to CPP-P1 = 100, n = 3
Description: For CPP-conjugated peptide delivery, HeLa, 293T, and PA-1 cells were incubated with CPP-conjugated peptides or CPP-FITC at 2 μM in DMEM with 10% FBS for 12 h a day before cell harvest. hPSCs were treated with CPP-conjugated peptides at 10 μM in mTeSR Plus Medium, and the peptide-containing medium was changed every day over 10 days. The ROCK inhibitor (Tocris Bioscience, Y-27632) treated-hPSCs were dissociated into single cells using Accutase (Merck, SCR005) and differentiated into ectoderm, mesoderm, and endoderm using the STEMdiff Trilineage Differentiation Kit ([…] Technologies, 05230) following the manufacturer’s protocol. Differentiated cells treated with CPP-conjugated peptides were analysed at 0, 3, and 5 days for ectoderm and endoderm, and at 0, 3, and 4 days for mesoderm.
Protein samples were loaded for electrophoresis on sodium dodecyl sulphate (SDS) polyacrylamide gels, followed by Coomassie blue staining or transferred to nitrocellulose membranes (Cytiva) for WB. After blocking with 5% non-fat milk (Cellconic) in Tris-buffered saline with Tween-20 for 30 min at room temperature, the membranes were incubated with the following primary antibodies: anti-FLAG (GenScript, A00187; 1:2000), UPF1 (Cell Signaling Technology, 12040; 1:4000), UPF2 (Cell Signaling Technology, 11875; 1:2000), eIF4E (Cell Signaling Technology, 2067; 1:2000), β-actin (Sigma-Aldrich, A2228; 1:4000), GST (Cytiva, 27-4577-01; 1:2000), MYC (Calbiochem, OP10; 1:2000), Calnexin (Cell Signaling Technology, 2679; 1:4000), LIN28A (Cell Signaling Technology, 3978; 1:2000), pSer1096 phosphorylated UPF1 (1:2000)[58], or p-Thr28 phosphorylated UPF1 (ImmuQuest, IQ653; 1:2000). Primary antibodies were incubated overnight at 4 °C and then washed thrice with TBS-T, followed by incubation with secondary antibodies: Goat anti-Rabbit IgG (Invitrogen, 31460; 1:4000), Goat anti-Mouse IgG (Invitrogen, 31430; 1:4000), or Horse anti-Goat IgG (Vector Laboratories, PI-9500; 1:4000) for 1 h at room temperature. For pull-downed protein detection, all primary and secondary antibodies were diluted at 1:10,000. The blots were imaged using ChemiDoc XRS+ System (Bio-Rad) and the greyscale intensity values were quantified using Image Lab 3.0 software (Bio-Rad).
DAPI FITC Merge DAPI FITC Merge CHA15 H9 Pro2 H9
No peptide CPP-FITC Calnexin
For 2-day treatm ent For 4-day treatm ent […]
Student’s t-test was used. Data are presented as m ean values ± S.D (b) and mean values ± SEM (c and d). All statistical test us ed wer e two-s ided. T he m inim um num ber of independent biological replicate experim ents was a, b, and d n = 3, c n = 5. T he experim ents wer e conducted three tim es, each iteration producing consistent results. […]

Substance	gene expression, CPP-P8 / P1 ([1]; ACTC1)	gene expression, CPP-P8 / P1 ([1]; ACTN1)	gene expression, CPP-P8 / P1 ([1]; ADAR)	gene expression, CPP-P8 / P1 ([1]; ADM)	levels of the NMD targets ([1]; CHA15, 10 μM daily for 5 days)	transcripts with significant two-fold change ([1]; CHA15, 5 days, p < 0.05)	CAPN6 expression (dot plot) ([1]; CHA15, P8 vs P1 plot (Fig. 6d))	CDH6 expression (dot plot) ([1]; CHA15, P8 vs P1 plot (Fig. 6d))	CYP26A1 expression (dot plot) ([1]; CHA15, P8 vs P1 plot (Fig. 6d))	DLX5 expression (dot plot) ([1]; CHA15, P8 vs P1 plot (Fig. 6d))	number of NMD targets downregulated ([1]; CHA15, |Fc| > 1.2, P < 0.05, of 286 NMD targets)	number of NMD targets significantly changed by CPP-P8 ([1]; |Fc| > 1.2, p < 0.05)	NMD targets commonly regulated with UPF1- and LIN28A-depletion ([1]; hPSCs, over 1.2-fold)	transcripts commonly regulated with UPF1- and LIN28A-depletion ([1]; hPSCs, over 1.2-fold)	p-UPF1 (Thr28)/Calnexin, mean (p-UPF1 (Thr28); CHA15, 2-day treatment)	p-UPF1 (Thr28)/Calnexin, mean (p-UPF1 (Thr28); H9, 2-day treatment)	p-UPF1 (Thr28)/Calnexin, mean (p-UPF1 (Thr28); H9, 4-day treatment)	p-UPF1 (Thr28)/Calnexin, mean (p-UPF1 (Thr28); Pro2, 2-day treatment)	NMD targets as share of significantly changed genes ([1]; hPSCs)	number of transcripts significantly regulated ([1]; hPSCs, |Fc| > 1.2, p < 0.05)
KKKWCRKKKSSADEKRYRALKRTAERELLMNA [CPP-P8, CPP conjugated to P8]	-1.36	-1.23	-1.28	-2.99	efficiently depressed the levels of the NMD targets	69 transcripts	0.9142	0.924	1.759	0.5911	32 transcripts	51	10 NMD targets	230 transcripts	–	–	–	–	–	–
KKKWCRKKKSSADEKRYRALKRTAERELLMNA [P8]	–	–	–	–	–	–	–	–	–	–	–	51	–	–	277%	91%	183%	250%	2.3%	2196 transcripts
N-QKLDQKELQLEPM-C [P1, reference compound]	–	–	–	–	–	–	–	–	–	–	–	–	–	–	100%	100%	100%	100%	–	–

— article PMC10762078, “Role of UPF1-LIN28A interaction during early differentiation of pluripotent stem cells” (Nature Communications, 2024)
